From ChEMBL document CHEMBL3639166, “Heteroaryloxyheterocyclyl compounds as PDE10 inhibitors” (2013) come the findings set out here.

The assay concerns the target T1, cAMP and cAMP-inhibited cGMP 3',5'-cyclic phosphodiesterase 10A (Rattus norvegicus, UniProt Q9QYJ6).
T1 sequence (Q9QYJ6 whole entry): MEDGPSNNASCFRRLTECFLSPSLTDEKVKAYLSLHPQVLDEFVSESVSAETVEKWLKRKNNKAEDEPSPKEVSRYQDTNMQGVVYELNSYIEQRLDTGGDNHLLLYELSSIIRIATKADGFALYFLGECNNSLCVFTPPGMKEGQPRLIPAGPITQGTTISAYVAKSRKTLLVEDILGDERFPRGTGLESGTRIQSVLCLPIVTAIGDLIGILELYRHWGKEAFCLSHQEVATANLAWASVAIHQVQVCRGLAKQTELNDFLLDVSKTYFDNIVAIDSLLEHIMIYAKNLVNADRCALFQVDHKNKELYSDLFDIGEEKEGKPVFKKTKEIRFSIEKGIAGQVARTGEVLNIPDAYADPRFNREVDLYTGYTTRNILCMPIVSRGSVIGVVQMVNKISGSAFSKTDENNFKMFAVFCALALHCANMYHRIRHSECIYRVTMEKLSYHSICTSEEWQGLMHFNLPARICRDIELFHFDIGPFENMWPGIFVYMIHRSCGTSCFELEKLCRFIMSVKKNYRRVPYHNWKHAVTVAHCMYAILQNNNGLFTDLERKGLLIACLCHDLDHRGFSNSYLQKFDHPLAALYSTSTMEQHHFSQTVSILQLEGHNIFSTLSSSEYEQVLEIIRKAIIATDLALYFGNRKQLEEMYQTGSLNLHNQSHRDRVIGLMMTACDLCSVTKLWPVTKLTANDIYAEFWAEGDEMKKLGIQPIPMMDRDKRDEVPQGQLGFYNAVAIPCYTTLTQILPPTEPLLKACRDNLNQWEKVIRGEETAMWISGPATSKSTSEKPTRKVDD
As to the kind of experiment: Enzyme Inhibition Assay: Enzyme activity: An IMAP TR-FRET assay was used to analyze the enzyme activity (Molecular Devices Corp., Sunnyvale, Calif).

One may read the IC50 as the point on the concentration scale where inhibition reaches its midpoint. In turn, `O=C(c1ccc[nH]1)N1CCC(Oc2ncccc2C2CCOCC2)CC1` displayed an IC50 of 4260 nM. Take `Cc1ccc2ccc(N3CCC(Oc4nccnc4C4CCOCC4)CC3)nc2c1`: the IC50 came out at 515 nM.

`Clc1cnccc1-c1nccnc1OC1CCN(c2ccc3ccccc3n2)CC1` gave an IC50 of 83.9 nM. To `O=C(c1nc2ccccc2[nH]1)N1CC(Oc2ncccc2[C@H]2CC[C@@H](O)CC2)C1` belongs 21.1 nM; to `CC(=O)N1CCC(c2nccnc2OC2CCN(c3ccccn3)CC2)CC1`, 2850 nM; to `O=C1CCN(c2nccnc2OC2CN(c3ccc4ccccc4n3)C2)CC1`, 110 nM.

Consider `CC(=O)N1CCC(c2nccnc2OC2CCN(c3ncccc3Cl)CC2)CC1`, for which the IC50 came out at 1440 nM.

`Cc1cnccc1-c1nccnc1OC1CN(c2ccc3ccccc3n2)C1` came in with an IC50 of 298 nM. The value for `O=C(c1nc2ccccc2[nH]1)N1CC[C@@H](Oc2ncccc2C2CCOCC2)C1` was 1820 nM. To `c1cncc(-c2nccc(OC3CN(c4ccc5ccccc5n4)C3)n2)c1` belongs 35.6 nM; to `CC(C)(C)OC(=O)N1CC(Oc2ncccc2[C@H]2CC[C@H](O)CC2)C1`, 15.8 nM; to `c1ccc2nc(N3CC(Oc4nccnc4N4CCC(N5CCCC5)CC4)C3)ccc2c1`, 571 nM. The value for `CS(=O)(=O)N1CCC(c2nccnc2OC2CN(c3ccc4ccccc4n3)C2)CC1` was 208 nM. On to `Cc1cc(-c2nccnc2OC2CN(c3ccc4ccccc4n3)C2)ccn1`, for which half-maximal inhibition (IC50) was put at 12.7 nM. To `Cc1ccc(N2CCC(Oc3ncccc3C3CCOCC3)CC2)nc1` belongs 262 nM; to `OCC1CCN(c2ccc(Br)c(OC3CN(c4ccc5ccccc5n4)C3)n2)CC1`, 0.229 nM; to `O=C(c1nc2ccccc2[nH]1)N1CC(Oc2nccnc2N2CCC(O)CC2)C1`, 186 nM. To `Cc1cccnc1C(=O)N1CCC(Oc2ncccc2C2CCOCC2)CC1` belongs 1000 nM; to `FC1(F)CCN(c2nccnc2OC2CN(c3ccc4ccccc4n3)C2)CC1`, 4.23 nM; to `Cc1ccc2ccc(N3CCC(Oc4ncccc4C4CCOCC4)CC3)nc2c1`, 266 nM.

Compound `Nc1ccc(-c2nccc(OC3CN(c4ccc5ccccc5n4)C3)n2)cc1` gave an IC50 of 110 nM. This IC50 is about 2.4-fold lower than that of the compound before. The value for `O=[N+]([O-])c1ccc(N2CCC(Oc3ncccc3C3CCOCC3)CC2)nc1` was 1400 nM. In turn, `FC(F)(F)c1ccc(N2CCC(Oc3ncccc3C3CCOCC3)CC2)nc1` registered an IC50 of 2200 nM.

For `COC(=O)N1CCC(c2nccnc2OC2CN(c3ccc4ccccc4n3)C2)CC1`, the IC50 came to 158 nM. Against the preceding compound, the IC50 is about 14-fold lower. In the case of `CC(=O)N1CC=C(c2nccnc2OC2CN(c3nc4ccccc4s3)C2)CC1`, the IC50 worked out at 63.1 nM.

`c1ccc2nc(N3CC(Oc4nccnc4N4CCCCCC4)C3)ccc2c1`: the IC50 stood at 334 nM.

Regarding `COC(=O)C1CCN(c2ncc(Br)c(OC3CN(c4ccc5ccccc5n4)C3)n2)CC1`, half-maximal inhibition (IC50) required 1340 nM. Compared with the last compound, the IC50 is about 4-fold higher. Take `N#CC1CCN(c2cc(F)cnc2OC2CN(c3ccc4ccccc4n3)C2)CC1`: the midpoint of inhibition, the IC50, lay at 15.1 nM. `c1cnc(O[C@@H]2CCN(c3nc4ccccc4[nH]3)C2)c(C2CCOCC2)c1` came in with an IC50 of 3590 nM.

`c1ccc2nc(N3CCC(Oc4nccnc4-c4ccncc4)CC3)ccc2c1` gave an IC50 of 35.7 nM. To `c1ccc2nc(N3CC[C@@H](Oc4nccnc4C4CCOCC4)C3)ccc2c1` belongs 109 nM. To `OCC1CCN(c2ncc(Br)c(OC3CN(c4ccc5ccccc5n4)C3)n2)CC1` belongs 7 nM; to `CC(=O)N1CCCC(c2cccnc2OC2CN(C(=O)c3nc4ccccc4[nH]3)C2)C1` (stereo not given), 6.47 nM.

As for `c1ccc2nc(N3CC(Oc4nccnc4N4CCCC4)C3)ccc2c1`, the IC50 is 10000 nM.

In turn, `Cc1cnc(OC2CN(c3ccc4ccccc4n3)C2)c(N2CCC(CO)CC2)c1` had an IC50 of 1.52 nM. The value for `OCC1CCN(c2nccc(OC3CN(c4ccc5ccccc5n4)C3)n2)CC1` was 14.2 nM. `OC1CCN(c2nccnc2OC2CCN(c3ccc4ccccc4n3)CC2)CC1` returned an IC50 of 198 nM. The value for `CC(=O)N1CC2(C1)CN(c1nccnc1OC1CCN(c3ccc4ccccc4n3)CC1)C2` was 1270 nM; that for `OCC1CCN(c2nccnc2O[C@@H]2CCN(c3ccc4ccccc4n3)C2)CC1` was 167 nM; that for `c1ccc2nc(N3CC(Oc4nccnc4N4CCCOCC4)C3)ccc2c1` was 44.6 nM.

In turn, `COc1cccc(-c2nc3ccccc3nc2OC2CN(c3ccc4ccccc4n3)C2)c1` displayed an IC50 of 6.68 nM. To `Cc1ccnc(N2CCC(Oc3nccnc3C3CCOCC3)CC2)c1` belongs 1330 nM; to `CC(=O)N1CCC(c2cccnc2OC2CCN(c3cccc(Cl)n3)CC2)CC1`, 558 nM; to `CC(C)(C)OC(=O)N1CCC=C(c2nccnc2OC2CN(C(=O)c3nc4ccccc4[nH]3)C2)C1`, 227 nM. Consider `OC1CCN(c2nccnc2OC2CN(c3ccc4ccccc4n3)C2)C1` (stereo not given), for which the IC50 was 67 nM.

In turn, `N#Cc1ccccc1-c1nccnc1OC1CN(c2ccc3ccccc3n2)C1` had an IC50 of 377 nM. Compound `CC(=O)N1CCC(c2cccnc2OC2CCN(c3cc(C)ccn3)CC2)CC1` showed an IC50 of 1770 nM. Compared with the last compound, the IC50 is about 4.7-fold higher.

Turning to `Cc1cccc(-c2nccnc2OC2CN(c3ccc4ccccc4n3)C2)c1`, the IC50 worked out at 57.3 nM. This IC50 lies about 31-fold lower than the previous one. In turn, `CC(O)C1CCN(c2ccnnc2OC2CN(c3ccc4ccccc4n3)C2)CC1` (stereo not given) yielded an IC50 of 76.7 nM. To `Cc1ccc(C(=O)N2CCC(Oc3ncccc3C3CCOCC3)CC2)nc1` belongs 1650 nM; to `COc1ccc(-c2nccnc2OC2CN(c3ccc4ccccc4n3)C2)cn1`, 25.4 nM. To `c1ccc2nc(N3CCC(Oc4nccnc4N4CC5(COC5)C4)CC3)ccc2c1` belongs 345 nM; to `Cc1ncccc1-c1nccnc1OC1CN(c2ccc3ccccc3n2)C1`, 135 nM; to `CC(=O)N1CCC(c2cccnc2OC2CN(C(=O)OC(C)(C)C)C2)CC1`, 10200 nM.

Regarding `CC(=O)N1CCC(c2nccnc2OC2CCN(c3cc(C)ccn3)CC2)CC1`, the IC50 was 997 nM.

As to `OCC1CCN(c2ncc(Br)c(OC3CN(c4cnc5ccccc5n4)C3)n2)CC1`, the IC50 stood at 24.2 nM.

With `Cc1cc(-c2cccnc2OC2CCN(C(=O)c3ccc4ccccc4n3)CC2)ccn1`, inhibition was half-maximal at 1230 nM (IC50). The value for `N#CC1CCN(c2cccnc2OC2CN(c3ccc4ccccc4n3)C2)CC1` was 68.9 nM.

In turn, `Brc1cccnc1OC1CN(c2ccncn2)C1` registered an IC50 of 57700 nM. The value for `FC1(F)CCN(c2cccnc2OC2CN(c3ccc4ccccc4n3)C2)CC1` was 35.9 nM; that for `CC(=O)c1ccc(N2CCC(Oc3ncccc3C3CCOCC3)CC2)nc1` was 384 nM. To `CC(=O)N1CCC(c2cccnc2OC2CN(C(=O)c3nc4ccccc4[nH]3)C2)CC1` belongs 102 nM. On to `Cc1cc(-c2nccnc2O[C@H]2CCN(c3ccc4ccccc4n3)C2)ccn1`, for which 639 nM corresponded to half-maximal inhibition (IC50). Compared with the last compound, the IC50 is about 6.3-fold higher. `Cc1ccc(-c2nccnc2OC2CN(c3ccc4ccccc4n3)C2)cc1` registered an IC50 of 98.7 nM. This IC50 lies about 6.5-fold lower than the previous one. To `c1ccc2nc(N3CCC(Oc4nccnc4N4CCOCC4)CC3)ccc2c1` belongs 254 nM.
